Tests used:
Assay type in all cases: cell-based
[1] = test system: E. coli; test: E. coli content of raw sewage sludge cake (25.6% DS) treated with urea; settings: raw sewage sludge 25.6% DS
Method: Samples of raw sewage sludge cake with mean solids content of 25.6% were treated with various amounts of urea. The E. coli content (cfu/g dry weight) of the samples was monitored over a period.

[2] = test system: E. coli; test: E. coli content of digested sludge cake (24.8% solids) treated with urea; settings: digested sewage sludge 24.8% solids
Method: Samples of digested sludge cake with mean solids content of 24.8% were treated with various amounts of urea. The E. coli content (cfu/g dry weight) of the samples was monitored over a period.

[3] = test system: pathogens in the cake; test: Pathogen deactivation in sewage sludge cake (general statement); settings: low concentration added to sewage sludge cake, particularly septic cake

## NC(N)=O [urea]
[1]; 0.5% dose urea, day 0
  E. coli content: 1.36E+06 cfu/g dry weight
[1]; 0.5% dose urea, day 1
  E. coli content: 7.58E+06 cfu/g dry weight
[1]; 0.5% dose urea, day 8
  E. coli content: 1.32E+05 cfu/g dry weight
[1]; 0.5% dose urea, day 14
  E. coli content: 1.18E+05 cfu/g dry weight
[1]; 0.5% dose urea, day 22
  E. coli content: 4.55E+04 cfu/g dry weight
[1]; 1.0% dose urea, day 0
  E. coli content: 1.39E+06 cfu/g dry weight
[1]; 1.0% dose urea, day 1
  E. coli content: 6.15E+06 cfu/g dry weight
[1]; 1.0% dose urea, day 8
  E. coli content: 3.25E+03 cfu/g dry weight
[1]; 1.0% dose urea, day 14
  E. coli content: 9.58E+02 cfu/g dry weight
[1]; 1.0% dose urea, day 22
  E. coli content: 3.35E+02 cfu/g dry weight
[1]; 1.5% dose urea, day 0
  E. coli content: 1.23E+06 cfu/g dry weight
[1]; 1.5% dose urea, day 1
  E. coli content: 1.30E+03 cfu/g dry weight
[1]; 1.5% dose urea, day 8
  E. coli content: 9.03E+02 cfu/g dry weight
[1]; 1.5% dose urea, day 14
  E. coli content: 2.09E+02 cfu/g dry weight
[1]; 1.5% dose urea, day 22
  E. coli content: 1.00E+01 cfu/g dry weight
[2]; 0.5% dose urea, day 0
  E. coli content: 4.67E+04 cfu/g dry weight
[2]; 0.5% dose urea, day 1
  E. coli content: 1.86E+03 cfu/g dry weight
[2]; 0.5% dose urea, day 4
  E. coli content: 1.21E+02 cfu/g dry weight
[2]; 0.5% dose urea, day 7
  E. coli content: 1.94E+02 cfu/g dry weight
[2]; 0.5% dose urea, day 14
  E. coli content: 3.90E+01 cfu/g dry weight
[2]; 0.5% dose urea, day 50
  E. coli content: 5.40E+01 cfu/g dry weight
[2]; 1.0% dose urea, day 0
  E. coli content: 1.79E+04 cfu/g dry weight
[2]; 1.0% dose urea, day 1
  E. coli content: 6.97E+03 cfu/g dry weight
[2]; 1.0% dose urea, day 4
  E. coli content: 7.90E+01 cfu/g dry weight
[2]; 1.0% dose urea, day 7
  E. coli content: 7.90E+01 cfu/g dry weight
[2]; 1.0% dose urea, day 14
  E. coli content: 1.34E+02 cfu/g dry weight
[2]; 1.0% dose urea, day 50
  E. coli content: 1.85E+02 cfu/g dry weight
[2]; 1.5% dose urea, day 0
  E. coli content: 1.19E+04 cfu/g dry weight
[2]; 1.5% dose urea, day 1
  E. coli content: 4.57E+03 cfu/g dry weight
[2]; 1.5% dose urea, day 4
  E. coli content: 3.70E+01 cfu/g dry weight
[2]; 1.5% dose urea, day 7
  E. coli content: 1.54E+02 cfu/g dry weight
[2]; 1.5% dose urea, day 14
  E. coli content: 7.90E+01 cfu/g dry weight
[2]; 1.5% dose urea, day 50
  E. coli content: 4.10E+01 cfu/g dry weight
[3]
  Pathogens in the cake: quickly become deactivated
